Laboratory results from publication PMC8286840, “Identifying SARS-CoV-2 antiviral compounds by screening for small molecule inhibitors of Nsp3 papain-like protease” (Biochemical Journal, 2021).
Structures can show the parent of a compound that is named as a salt. Where two headings read alike, the source gives them in different places.

Experiments:
[1] = target: T1, SARS-CoV-2 PLpro (nsp3 1564–1878) (Severe acute respiratory syndrome coronavirus 2, UniProt P0DTD1); test: biochemical; parameters: FRET-quenched peptide (Pro3) cleavage by PLpro, 10 min pre-incubation, slope over 20 min, normalised to no-compound control; settings: high concentration screen, read-out: % of control remaining
[2] = target: T1, SARS-CoV-2 PLpro (nsp3 1564–1878); test: biochemical; parameters: FRET-quenched peptide (Pro3) cleavage by PLpro, 10 min pre-incubation, slope over 20 min, normalised to no-compound control; settings: low concentration screen, read-out: % of control remaining

What does the source list for C[C@H](N[C@@H](CCc1ccccc1)C(=O)O)C(=O)N1CCC[C@H]1C(=O)O [Enalaprilat Dihydrate]?
remaining activity at 3.75 µM ([1]; Well no.=8094): 98.4%; remaining activity at 1.25 µM ([2]; Well no.=8094): 96.7%

With C[C@H](N[C@@H](CCc1ccccc1)C(=O)O)C(=O)N1CCC[C@H]1C(=O)O [Enalaprilat] as the compound, how does the remaining activity at 3.75 µM ([1]; Well no.=1900) read?
Its remaining activity at 3.75 µM is 93.8%.

And the remaining activity at 3.75 µM ([1]; Well no.=5968)?
The remaining activity at 3.75 µM was 98.2%.

And the remaining activity at 1.25 µM ([2]; Well no.=1900)?
The remaining activity at 1.25 µM was 95.1%.

What about the remaining activity at 1.25 µM ([2]; Well no.=5968) of the same compound?
Its remaining activity at 1.25 µM is 99.8%.

CCCCCCCCCCCCCCCCOCC(COP(=O)([O-])OCC[N+](C)(C)C)OC(C)=O (stereo not drawn) [Enantio-PAF C16] was tested. Which remaining activity at 3.75 µM ([1]; Well no.=4455) did it give?
The remaining activity at 3.75 µM was 100%.

What about the remaining activity at 1.25 µM ([2]; Well no.=4455) of the same compound?
The remaining activity at 1.25 µM was 98.4%.

What does the source list for CC(C)(O)CNc1nc(Nc2ccnc(C(F)(F)F)c2)nc(-c2cccc(C(F)(F)F)n2)n1 [Enasidenib (AG-221)]?
remaining activity at 3.75 µM ([1]; Well no.=8582): 101%; remaining activity at 1.25 µM ([2]; Well no.=8582): 101%

How did the remaining activity at 3.75 µM ([1]; Well no.=7901) turn out when NC(=O)[C@H](Cc1ccccc1)NC(=O)[C@H](Cc1c[nH]c2ccccc12)NC(=O)[C@@H]1CCCN1C(=O)[C@@H](N)Cc1ccc(O)cc1 [Endomorphin 1] was run?
The remaining activity at 3.75 µM was 97.8%.

What about the remaining activity at 1.25 µM ([2]; Well no.=7901) of the same compound?
Its remaining activity at 1.25 µM is 102%.

What does the source list for O=C(O)[C@@H]1[C@H](C(=O)O)[C@H]2CC[C@@H]1O2 [Endothall]?
remaining activity at 3.75 µM ([1]; Well no.=701): 97.8%; remaining activity at 1.25 µM ([2]; Well no.=701): 97.9%

Which remaining activity at 3.75 µM ([1]; Well no.=2026) does the source give for CCn1cc(C(=O)O)c(=O)c2cc(F)c(N3CCNCC3)nc21 [Enoxacin] here?
The remaining activity at 3.75 µM was 106%.

What about the remaining activity at 1.25 µM ([2]; Well no.=2026) of the same compound?
Its remaining activity at 1.25 µM is 103%.

CSc1ccc(C(=O)c2[nH]c(=O)[nH]c2C)cc1 [Enoximone] was tested. Which remaining activity at 3.75 µM ([1]; Well no.=406) did it give?
Its remaining activity at 3.75 µM is 102%.

And the remaining activity at 1.25 µM ([2]; Well no.=406)?
The remaining activity at 1.25 µM was 103%.

How did the remaining activity at 3.75 µM ([1]; Well no.=2028) turn out when CCN1CCN(c2cc3c(cc2F)c(=O)c(C(=O)O)cn3C2CC2)CC1 [Enrofloxacin] was run?
The remaining activity at 3.75 µM was 104%.

And the remaining activity at 1.25 µM ([2]; Well no.=2028)?
The remaining activity at 1.25 µM was 104%.

Which results are given for CCN(CC)C(=O)/C(C#N)=C/c1cc(O)c(O)c([N+](=O)[O-])c1 [Entacapone]?
remaining activity at 3.75 µM ([1]; Well no.=1888): 93%; remaining activity at 1.25 µM ([2]; Well no.=1888): 96.2%

Which remaining activity at 3.75 µM ([1]; Well no.=5147) does the source give for C=C1[C@H](CO)[C@@H](O)C[C@@H]1n1cnc2c(=O)[nH]c(N)nc21 [Entecavir hydrate] here?
Its remaining activity at 3.75 µM is 95.5%.

And the remaining activity at 1.25 µM ([2]; Well no.=5147)?
Its remaining activity at 1.25 µM is 93.9%.

What does the source list for Cn1cc(C2=C(c3cn(C4CCN(Cc5ccccn5)CC4)c4ccccc34)C(=O)NC2=O)c2ccccc21 [Enzastaurin (LY317615)]?
remaining activity at 3.75 µM ([1]; Well no.=5003): 87.9%; remaining activity at 1.25 µM ([2]; Well no.=5003): 93%

For NS(=O)(=O)NCCNc1nonc1/C(=N/O)Nc1ccc(F)c(Br)c1 [Epacadostat (INCB024360)], which remaining activity at 3.75 µM ([1]; Well no.=8722) is on record?
Its remaining activity at 3.75 µM is 95.9%.

What about the remaining activity at 1.25 µM ([2]; Well no.=8722) of the same compound?
Its remaining activity at 1.25 µM is 99.6%.

Which results are given for NS(=O)(=O)NCCNc1nonc1/C(=N/O)Nc1ccc(F)c(Br)c1 [Epacadostat]?
remaining activity at 3.75 µM ([1]; Well no.=8415): 95.7%; remaining activity at 1.25 µM ([2]; Well no.=8415): 99.9%

Which remaining activity at 3.75 µM ([1]; Well no.=5046) does the source give for CC(/C=C1\SC(=S)N(CC(=O)O)C1=O)=C\c1ccccc1 [Epalrestat] here?
Its remaining activity at 3.75 µM is 104%.

What about the remaining activity at 1.25 µM ([2]; Well no.=5046) of the same compound?
The remaining activity at 1.25 µM was 100%.

Which results are given for C[C@]12CC[C@H](O)C[C@@H]1CC[C@@H]1[C@@H]2CC[C@]2(C)C(=O)CC[C@@H]12 [Epiandrosterone]?
remaining activity at 3.75 µM ([1]; Well no.=6441): 103%; remaining activity at 1.25 µM ([2]; Well no.=6441): 103%

For COc1cc2c(cc1OC)-c1cc3ccc4c(c3c[n+]1CC2)OCO4 [Epiberberine (chloride)], which remaining activity at 3.75 µM ([1]; Well no.=8339) is on record?
Its remaining activity at 3.75 µM is 91.9%.

And the remaining activity at 1.25 µM ([2]; Well no.=8339)?
The remaining activity at 1.25 µM was 91.9%.

With CC(C)C[C@H](NC(=O)[C@H](O)[C@H](N)Cc1ccccc1)C(=O)O [Epibestatin hydrochloride] as the compound, how does the remaining activity at 3.75 µM ([1]; Well no.=692) read?
The remaining activity at 3.75 µM was 93.6%.

And the remaining activity at 1.25 µM ([2]; Well no.=692)?
Its remaining activity at 1.25 µM is 96.8%.

O=C(O[C@@H]1Cc2c(O)cc(O)cc2O[C@@H]1c1cc(O)c(O)c(O)c1)c1cc(O)c(O)c(O)c1 [Epigallocatechin gallate] was tested. Which remaining activity at 3.75 µM ([1]; Well no.=3895) did it give?
Its remaining activity at 3.75 µM is 101%.

And the remaining activity at 1.25 µM ([2]; Well no.=3895)?
The remaining activity at 1.25 µM was 98.4%.

How did the remaining activity at 3.75 µM ([1]; Well no.=3277) turn out when Oc1cc(O)c2c(c1)O[C@H](c1cc(O)c(O)c(O)c1)[C@H](O)C2 [Epigallocatechin] was run?
Its remaining activity at 3.75 µM is 101%.

And the remaining activity at 1.25 µM ([2]; Well no.=3277)?
The remaining activity at 1.25 µM was 102%.

How did the remaining activity at 3.75 µM ([1]; Well no.=6611) turn out when NC1=NCC2c3ccccc3Cc3ccccc3N12 (stereo not shown) [Epinastine] was run?
The remaining activity at 3.75 µM was 94.8%.

And the remaining activity at 1.25 µM ([2]; Well no.=6611)?
Its remaining activity at 1.25 µM is 96%.

For CNC[C@H](O)c1ccc(O)c(O)c1 [Epinephrine bitartrate (Adrenalinium)], which remaining activity at 3.75 µM ([1]; Well no.=5254) is on record?
Its remaining activity at 3.75 µM is 101%.

What about the remaining activity at 1.25 µM ([2]; Well no.=5254) of the same compound?
The remaining activity at 1.25 µM was 105%.

How did the remaining activity at 3.75 µM ([1]; Well no.=5141) turn out when COc1cccc2c1C(=O)c1c(O)c3c(c(O)c1C2=O)C[C@@](O)(C(=O)CO)C[C@@H]3O[C@H]1C[C@H](N)[C@@H](O)[C@H](C)O1 [Epirubicin HCl] was run?
The remaining activity at 3.75 µM was 107%.

And the remaining activity at 1.25 µM ([2]; Well no.=5141)?
Its remaining activity at 1.25 µM is 106%.

Which remaining activity at 3.75 µM ([1]; Well no.=5343) does the source give for COC(=O)[C@@H]1CC2=CC(=O)CC[C@]2(C)[C@@]23O[C@@H]2C[C@@]2(C)[C@@H](CC[C@@]24CCC(=O)O4)[C@H]13 [Eplerenone] here?
The remaining activity at 3.75 µM was 96.5%.

What about the remaining activity at 1.25 µM ([2]; Well no.=5343) of the same compound?
Its remaining activity at 1.25 µM is 97.5%.

How did the remaining activity at 3.75 µM ([1]; Well no.=5157) turn out when C/C(=C\c1csc(C)n1)[C@@H]1C[C@@H]2O[C@@H]2CCC[C@H](C)[C@H](O)[C@@H](C)C(=O)C(C)(C)[C@@H](O)CC(=O)O1 [Epothilone A] was run?
Its remaining activity at 3.75 µM is 93.4%.

And the remaining activity at 1.25 µM ([2]; Well no.=5157)?
Its remaining activity at 1.25 µM is 95.3%.

Which results are given for CCCCCCCC[C@H]1O[C@H]1CCCCCCCC(=O)O [Epoxy-oleic acid]?
remaining activity at 3.75 µM ([1]; Well no.=4569): 103%; remaining activity at 1.25 µM ([2]; Well no.=4569): 96.6%

Which remaining activity at 3.75 µM ([1]; Well no.=8191) does the source give for CCCCc1ncc(/C=C(\Cc2cccs2)C(=O)O)n1Cc1ccc(C(=O)O)cc1 [Eprosartan (mesylate)] here?
Its remaining activity at 3.75 µM is 105%.

And the remaining activity at 1.25 µM ([2]; Well no.=8191)?
The remaining activity at 1.25 µM was 105%.

Which results are given for CCCCc1ncc(/C=C(\Cc2cccs2)C(=O)O)n1Cc1ccc(C(=O)O)cc1 [Eprosartan mesylate]?
remaining activity at 3.75 µM ([1]; Well no.=1882): 99.1%; remaining activity at 1.25 µM ([2]; Well no.=1882): 98.4%

Which remaining activity at 3.75 µM ([1]; Well no.=5252) does the source give for Oc1ccc([C@H]2COc3cc(O)ccc3C2)cc1 [Equol] here?
The remaining activity at 3.75 µM was 99.3%.

And the remaining activity at 1.25 µM ([2]; Well no.=5252)?
Its remaining activity at 1.25 µM is 99.7%.

For CCOc1ccccc1-n1c(C(C)N2CCN(C(=O)COc3ccc(Cl)cc3)CC2)nc2ccccc2c1=O (stereo not shown) [Erastin], which remaining activity at 3.75 µM ([1]; Well no.=6732) is on record?
Its remaining activity at 3.75 µM is 96.5%.

What about the remaining activity at 1.25 µM ([2]; Well no.=6732) of the same compound?
Its remaining activity at 1.25 µM is 98.2%.

With CC(C)[C@@]1(NC(=O)[C@@H]2C=C3c4cccc5[nH]cc(c45)C[C@H]3N(C)C2)O[C@@]2(O)[C@@H]3CCCN3C(=O)[C@H](Cc3ccccc3)N2C1=O [Ergocristine] as the compound, how does the remaining activity at 3.75 µM ([1]; Well no.=561) read?
The remaining activity at 3.75 µM was 102%.

And the remaining activity at 1.25 µM ([2]; Well no.=561)?
The remaining activity at 1.25 µM was 105%.

What does the source list for CC(C)[C@@H](C)/C=C/[C@@H](C)[C@H]1CC[C@H]2C3=CC=C4C[C@@H](O)CC[C@]4(C)[C@H]3CC[C@]12C [Ergosterol]?
remaining activity at 3.75 µM ([1]; Well no.=5194): 101%; remaining activity at 1.25 µM ([2]; Well no.=5194): 102%

With CN1C[C@H](C(=O)N[C@]2(C)O[C@@]3(O)[C@@H]4CCCN4C(=O)[C@H](Cc4ccccc4)N3C2=O)C=C2c3cccc4[nH]cc(c34)C[C@H]21 [Ergotamine] as the compound, how does the remaining activity at 3.75 µM ([1]; Well no.=1726) read?
Its remaining activity at 3.75 µM is 98.3%.

And the remaining activity at 1.25 µM ([2]; Well no.=1726)?
The remaining activity at 1.25 µM was 99.5%.

What does the source list for C[N+](C)(C)[C@@H](Cc1c[nH]c(=S)[nH]1)C(=O)[O-] [Ergothioneine]?
remaining activity at 3.75 µM ([1]; Well no.=1612): 98.8%; remaining activity at 1.25 µM ([2]; Well no.=1612): 100%
